Results from patent publication US8088886B2, “Lipoprotein associated phospholipase A2, inhibitors thereof and use of the same in diagnosis and therapy” (Smith-Kline Beecham P.L.C., priority 1993, dated 2012).

Each compound was assayed against T1, Lp-PLA2 (Homo sapiens, UniProt Q13093) (assay: Screen for Lp-PLA2 inhibition (turnover of artificial substrate (A), absorbance at 405 nm)). Details: 37° C., pH 7.4, 10 min pre-incubation, 20 μM substrate (A).
T1 construct: from tissue; host or cells: LDL from plasma (apheresis)
T1 sequence (Q13093 22-441): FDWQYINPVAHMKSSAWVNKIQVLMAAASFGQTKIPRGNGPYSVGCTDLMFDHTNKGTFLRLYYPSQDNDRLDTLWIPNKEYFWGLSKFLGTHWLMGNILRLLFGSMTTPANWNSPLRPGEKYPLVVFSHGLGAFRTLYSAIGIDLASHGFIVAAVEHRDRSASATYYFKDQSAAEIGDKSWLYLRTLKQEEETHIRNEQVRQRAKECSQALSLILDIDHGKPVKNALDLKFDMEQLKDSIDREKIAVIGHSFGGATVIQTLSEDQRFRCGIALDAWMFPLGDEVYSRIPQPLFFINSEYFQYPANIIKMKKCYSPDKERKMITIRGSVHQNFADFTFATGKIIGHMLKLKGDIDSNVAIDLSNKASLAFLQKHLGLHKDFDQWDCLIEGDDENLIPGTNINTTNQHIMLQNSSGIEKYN
Type: biochemical
Protocol: 1. Screen for Lp-PLA2 Inhibition.
Enzyme activity was determined by measuring the rate of turnover of the artificial substrate (A) at 37° C. in 50 mM HEPES (N-2-hydroxyethylpiperazine-N′-2-ethanesulphonic acid) buffer containing 150 mM NaCl, pH 7.4.
Assays were performed in 96 well titre plates.
Lp-PLA2 was pre-incubated at 37° C. with vehicle or test compound for 10 min in a total volume of 180 μl. The reaction was then initiated by the addition of 20 μl 10× substrate (A) to give a final substrate concentration of 20 μM. The reaction was followed at 405 nm for 20 minutes using a plate reader with automatic mixing. The rate of reaction was measured as the rate of change of absorbance.
Work on `CCCCCCCCCCCCCCCCOCC(COP(=O)([O-])OCC[N+](C)(C)C)NC(C)=O` (centres unmarked) [Compound 1] yielded an IC50 of 0.8 µM. `CCCCCCCCCCCCCCCCCCOCC(COP(=O)([O-])OCC[N+](C)(C)C)NC(C)=O` (centres unmarked) [Compound 2] showed an IC50 of 3.5 µM. `CCCCCCCCCCCCCCCCCCOCC(COP(=O)([O-])OCC[S+](C)C)NC(C)=O` (centres unmarked) [Compound 3] showed an IC50 of 1 µM. `CCCCCCCCCCCCCCCCCCOCC(COP(=O)([O-])OCC[n+]1ccn(C)c1)NC(C)=O` (centres unmarked) [Compound 8] gave an IC50 of 0.55 µM. `CCCCCCCCCCCCCCCCCCOCC(COP(=O)([O-])OCC[N+](C)(C)C)NC(=O)C(F)(F)F` (centres unmarked) [Compound 9] was tested, and the IC50 was 2.5 µM.
